Measured values reported in publication PMC7997166, “In Silico Plasma Protein Binding Studies of Selected Group of Drugs Using TLC and HPLC Retention Data” (Pharmaceuticals, 2021).

What was measured:
[1] = NP TLC on control silica gel plates without protein modifier (Rf); assay type: physicochemical; conditions: silica gel 60 F254 without BSA (control), mobile phase acetonitrile:acetate buffer pH 7.4:methanol 60:20:20, λ = 240 nm
Protocol: TLC was performed in normal and reversed phase (NP and RP) systems. Aluminum plates with silica gel (Merck, TLC Silica gel 60 F254) were used in the NP system and aluminum plates with silanized silica gel—RP (Merck, TLC Silica gel 60 RP-2 F254, silanized) were used in the RP system. The stationary phase surface modifying protein was bovine serum albumin. A 2-mg/mL solution of BSA (Sigma Aldrich, Bovine serum albumin lyophilised powder) in distilled water was applied on the surface using Desaga Sprayer SG 1 and air-dried.
Drug solutions in methanol (1 mg/mL) were applied on the plates with the Desaga HPTLC-Applicator AS 30, then the plates were developed in the mobile phase composed of acetonitrile, acetate buffer pH 7.4 and methanol, 60:20:20 (v/v/v). All solvents used—water, methanol and acetonitrile—were purchased from J.T. Baker (HPLC Gradient Grade). The acetate buffer (20mM) was prepared by dissolving 1.54 g of ammonium acetate in 1 L of distilled water. The pH was then adjusted with concentrated ammonia solution.
The mobility of the compounds was initially determined on NP and RP plates without the participation of the protein modifier. These were labeled as controls (C). The obtained retardation factor (Rf) values could be used to determine the composition of the mobile phase, as well as the specific effect of the protein modifier on the mobility of the APIs. […]

bovine serum albumin = bovine serum albumin (Bos taurus, UniProt P02769); assay: NP TLC on BSA-impregnated silica gel plates (retardation factor Rf); assay type: binding; conditions: silica gel 60 F254 impregnated with BSA, mobile phase acetonitrile:acetate buffer pH 7.4:methanol 60:20:20, λ = 240 nm
human serum albumin = human serum albumin (Homo sapiens, UniProt P02768); assay: HPLC on column with immobilized human serum albumin (CHIRALPAK HSA); assay type: binding; conditions: mobile phase acetate buffer pH 7.4:acetonitrile:methanol 85:10:5; flow 0.9 mL/min; 25 degrees Celsius; void time marker methanol t = 1.63
human serum albumin, sequence (P02768 25-609): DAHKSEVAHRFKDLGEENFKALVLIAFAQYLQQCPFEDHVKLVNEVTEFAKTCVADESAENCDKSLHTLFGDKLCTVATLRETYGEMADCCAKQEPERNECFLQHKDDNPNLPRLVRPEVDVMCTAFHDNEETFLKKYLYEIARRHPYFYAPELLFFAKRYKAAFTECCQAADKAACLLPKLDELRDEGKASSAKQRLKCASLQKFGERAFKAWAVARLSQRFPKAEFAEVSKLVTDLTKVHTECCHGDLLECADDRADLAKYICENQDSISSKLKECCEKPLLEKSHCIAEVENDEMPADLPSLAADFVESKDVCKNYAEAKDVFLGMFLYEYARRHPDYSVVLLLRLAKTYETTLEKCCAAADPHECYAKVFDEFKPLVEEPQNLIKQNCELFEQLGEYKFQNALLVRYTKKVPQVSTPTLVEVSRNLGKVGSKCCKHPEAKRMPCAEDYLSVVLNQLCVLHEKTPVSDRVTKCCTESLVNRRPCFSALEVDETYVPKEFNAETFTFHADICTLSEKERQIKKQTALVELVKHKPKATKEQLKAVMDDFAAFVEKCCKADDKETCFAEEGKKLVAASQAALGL
Protocol: HPLC analysis was performed on a Perkin Elmer Series 200 apparatus with a UV-VIS spectrometer for detection with an analytical wavelength of 210 nm. The mobile phase consisted of an acetate buffer with pH 7.4:acetonitrile:methanol, 85:10:5 (v/v/v). All solvents used—water, methanol and acetonitrile—were purchased from J.T. Baker (HPLC gradient class). The acetate buffer (10 mM) was prepared by dissolving 0.77 g of ammonium acetate in 1 L of distilled water. The pH was then adjusted with a concentrated ammonia solution.
API solutions in methanol (1 mg/mL, volume of injection: 10 μL) were injected into the HSA column using an automatic autosampler. The flow rate of the mobile phase was 0.9 mL/min. Since the column could not be thermostated, the room temperature was kept constant at 25 degrees Celsius by air conditioning. Chromatographic data (retention factor k and derivative: log k) were obtained for 129 APIs using the TotalChrom software connected to HPLC. Factor k, which is the ratio between the amount of analyte in the stationary phase to the amount in the mobile phase, was obtained from the equation k = (tR − tM)/tM where tR is retention time and tM is void time. The experiment was then repeated, and the collected retention factors (k) were means values from both series.

bovine serum albumin, sequence (P02769 25-607): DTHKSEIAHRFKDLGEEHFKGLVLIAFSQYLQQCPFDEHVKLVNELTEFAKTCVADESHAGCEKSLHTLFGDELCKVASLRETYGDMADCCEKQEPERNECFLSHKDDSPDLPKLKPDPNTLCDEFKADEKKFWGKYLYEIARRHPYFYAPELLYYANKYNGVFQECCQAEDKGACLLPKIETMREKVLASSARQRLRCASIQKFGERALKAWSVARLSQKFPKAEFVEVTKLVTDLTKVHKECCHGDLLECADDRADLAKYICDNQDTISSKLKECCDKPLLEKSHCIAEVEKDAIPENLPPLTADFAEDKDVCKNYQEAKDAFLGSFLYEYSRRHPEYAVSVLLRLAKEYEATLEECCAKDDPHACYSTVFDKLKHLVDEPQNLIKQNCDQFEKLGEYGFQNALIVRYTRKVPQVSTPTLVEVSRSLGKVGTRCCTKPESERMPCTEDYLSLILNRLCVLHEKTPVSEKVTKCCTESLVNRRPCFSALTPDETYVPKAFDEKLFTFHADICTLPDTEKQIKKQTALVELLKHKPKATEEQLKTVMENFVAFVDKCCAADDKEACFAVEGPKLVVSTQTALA

| Compound | Rf, control NP plate [1] | Rf, BSA-impregnated NP plate (bovine serum albumin) | retention time (t) on HPLC column with immobilized HSA (human serum albumin) |
| --- | --- | --- | --- |
| CN(C)CCC=C1c2ccccc2COc2ccccc21 [doxepin] | 0.34 | 0.31 | – |
| CC(C)c1nc(N(C)S(C)(=O)=O)nc(-c2ccc(F)cc2)c1/C=C/[C@@H](O)C[C@@H](O)CC(=O)O [rosuvastatin] | – | – | 3.71 |
